Reference: PubChem BioAssay AID330 (DTP/NCI, 2004)
Several values for one entry are separate records, joined by “and”; a condition that tells them apart may be missing. Identical values can stand only once. Toxic doses and inconclusive results are not listed. Rule for the calls: active = survival T/C of 150% or more; inactive = T/C below 125% in these data.

Test system: P388 leukemia ip, CD2F1 mice, survival T/C
Test: NCI In Vivo Anticancer Drug Screen. Data for tumor model P388 Leukemia (intraperitoneal) in CD2F1 (CDF1) mice
Settings: endpoint: median survival time, higher = longer survival
In short: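 Mice carrying the transplanted tumor received test compound or vehicle. Survival was recorded in each group, and the value is the treated-group measurement divided by that of the vehicle-treated control group.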

[1] = dose: 50.0 mg/kg/injection, schedule: Q01DX009 (ip), vehicle: saline with Tween-80
[2] = dose: 200.0 mg/kg/injection, schedule: Q01DX009 (ip), vehicle: saline with Tween-80
[3] = dose: 60.0 mg/kg/injection, schedule: Q01DX005 (ip), vehicle: saline with Tween-80
[4] = dose: 120.0 mg/kg/injection, schedule: Q01DX005 (ip), vehicle: saline with Tween-80
[5] = dose: 240.0 mg/kg/injection, schedule: Q01DX005 (ip), vehicle: saline with Tween-80
[6] = dose: 50.0 mg/kg/injection, schedule: Q01DX005 (ip), vehicle: saline with Tween-80
[7] = dose: 100.0 mg/kg/injection, schedule: Q01DX005 (ip), vehicle: saline with Tween-80
[8] = dose: 50.0 mg/kg/injection, schedule: Q01DX005 (ip), vehicle: Klucel (hydroxypropylcellulose) (HPC)
[9] = dose: 100.0 mg/kg/injection, schedule: Q01DX005 (ip), vehicle: Klucel (hydroxypropylcellulose) (HPC)
[10] = dose: 200.0 mg/kg/injection, schedule: Q01DX005 (ip), vehicle: Klucel (hydroxypropylcellulose) (HPC)

Measured: T/C

O=c1[nH]c(=O)n([C@H]2CCCO2)cc1F
inactive: dose: 44.0 mg/kg/injection, schedule: Q01DX009 (ip), vehicle: Klucel (hydroxypropylcellulose) (HPC) 111 % of control | [1] 104 % of control | dose: 59.0 mg/kg/injection, schedule: Q01DX009 (ip), vehicle: Klucel (hydroxypropylcellulose) (HPC) 114 % of control | dose: 90.0 mg/kg/injection, schedule: Q01DX009 (ip), vehicle: Klucel (hydroxypropylcellulose) (HPC) 124 % of control | dose: 142.0 mg/kg/injection, schedule: Q04DX003 (ip), vehicle: Klucel (hydroxypropylcellulose) (HPC) 109 % of control | dose: 189.0 mg/kg/injection, schedule: Q04DX003 (ip), vehicle: Klucel (hydroxypropylcellulose) (HPC) 115 % of control | [2] 93 % of control | dose: 201.0 mg/kg/injection, schedule: Q01DX009 (ip), vehicle: Klucel (hydroxypropylcellulose) (HPC) 95 % of control | dose: 316.0 mg/kg/injection, schedule: Q01DX001 (ip), vehicle: Klucel (hydroxypropylcellulose) (HPC) 107 % of control | dose: 421.0 mg/kg/injection, schedule: Q01DX001 (ip), vehicle: Klucel (hydroxypropylcellulose) (HPC) 115 % of control | dose: 641.0 mg/kg/injection, schedule: Q01DX001 (ip), vehicle: Klucel (hydroxypropylcellulose) (HPC) 120 % of control | dose: 645.0 mg/kg/injection, schedule: Q04DX003 (ip), vehicle: Klucel (hydroxypropylcellulose) (HPC) 120 % of control

C1=NCCCN2CCCCC12 (stereo not drawn)
inactive: dose: 20.0 mg/kg/injection, schedule: Q01DX009 (ip), vehicle: saline 98 % of control | dose: 40.0 mg/kg/injection, schedule: Q01DX009 (ip), vehicle: saline 93 % of control

COc1cc2c(cc1CCCc1cc(OC)c(OC)c(OC)c1)OCO2
inactive: [3] 92 % of control | [4] 89 % of control | [5] 86 % of control

COc1cc2oc3cc(=O)cc4oc(-c5ccccc5)cc(c2c2c1CCC(c1ccccc1)O2)c43 (stereo not drawn)
inactive: dose: 3.25 mg/kg/injection, schedule: Q01DX005 (ip), vehicle: Klucel + Tween-80 98 % of control | dose: 6.5 mg/kg/injection, schedule: Q01DX005 (ip), vehicle: Klucel + Tween-80 99 % of control | dose: 13.0 mg/kg/injection, schedule: Q01DX005 (ip), vehicle: Klucel + Tween-80 103 % of control | dose: 26.0 mg/kg/injection, schedule: Q01DX005 (ip), vehicle: Klucel + Tween-80 107 % of control

Cc1ccc(/C=N/n2c(-c3ccccc3Cl)nc3ccccc3c2=O)cc1
inactive: [6] 96 % of control | [7] 93 % of control | dose: 200.0 mg/kg/injection, schedule: Q01DX005 (ip), vehicle: saline with Tween-80 91 % of control

CN1C(=O)C(O)N=C(c2ccccc2)c2cc(Cl)ccc21 (stereo not drawn)
inactive: [1] 101 % of control | dose: 100.0 mg/kg/injection, schedule: Q01DX009 (ip), vehicle: saline with Tween-80 105 % of control | [2] 117 % of control

Cc1nc(Nc2ccc(F)cc2)c2c(C)c(CC(C)C)[nH]c2n1
inactive: [8] 87 % of control | [9] 91 % of control | [10] 100 % of control

NC(=S)c1ccccc1[N+](=O)[O-]
inactive: dose: 25.0 mg/kg/injection, schedule: Q01DX001 (ip), vehicle: saline 104 % of control | dose: 25.0 mg/kg/injection, schedule: Q01DX001 (ip), vehicle: suspension in saline 101 % of control | dose: 50.0 mg/kg/injection, schedule: Q01DX001 (ip), vehicle: saline 104 % of control | dose: 50.0 mg/kg/injection, schedule: Q01DX001 (ip), vehicle: suspension in saline 100 % of control | dose: 100.0 mg/kg/injection, schedule: Q01DX001 (ip), vehicle: saline 101 % of control and 104 % of control | dose: 100.0 mg/kg/injection, schedule: Q01DX001 (ip), vehicle: suspension in saline 102 % of control | dose: 200.0 mg/kg/injection, schedule: Q01DX001 (ip), vehicle: suspension in saline 101 % of control

Cc1cn(O)c(=N)c(C(N)=O)n1
inactive: dose: 37.5 mg/kg/injection, schedule: Q01DX009 (ip), vehicle: saline with Tween-80 90 % of control | dose: 75.0 mg/kg/injection, schedule: Q01DX009 (ip), vehicle: saline with Tween-80 100 % of control | dose: 150.0 mg/kg/injection, schedule: Q01DX009 (ip), vehicle: saline with Tween-80 107 % of control

CC1CCCCC1O (stereo not drawn)
inactive: dose: 50.0 mg/kg/injection, schedule: Q04DX003 (ip), vehicle: saline with Tween-80 110 % of control | dose: 100.0 mg/kg/injection, schedule: Q04DX003 (ip), vehicle: saline with Tween-80 115 % of control | dose: 200.0 mg/kg/injection, schedule: Q04DX003 (ip), vehicle: saline with Tween-80 115 % of control

CCC(c1ccc(O)cc1)C(CC)c1ccc(O)c(CN(C)C)c1 (stereo not drawn)
inactive: dose: 15.0 mg/kg/injection, schedule: Q01DX005 (ip), vehicle: saline with Tween-80 100 % of control | dose: 30.0 mg/kg/injection, schedule: Q01DX005 (ip), vehicle: saline with Tween-80 100 % of control | [3] 96 % of control | [4] 94 % of control

C=C1CCN(c2ccc(N3CCC(=C)C3=O)cc2)C1=O
inactive: dose: 3.12 mg/kg/injection, schedule: Q01DX009 (ip), vehicle: saline + alcohol 88 % of control | dose: 6.25 mg/kg/injection, schedule: Q01DX009 (ip), vehicle: saline + alcohol 100 % of control | dose: 25.0 mg/kg/injection, schedule: Q01DX009 (ip), vehicle: saline + alcohol 88 % of control | dose: 50.0 mg/kg/injection, schedule: Q01DX009 (ip), vehicle: saline + alcohol 88 % of control

O=C(Cn1ccnc1)Nc1ccc(Cl)cc1C(=O)c1ccccc1
inactive: [6] 95 % of control | [7] 92 % of control

CCCCOC1NC(=O)Oc2ccccc21 (stereo not drawn)
inactive: [3] 100 % of control and 103 % of control and 97 % of control | [4] 101 % of control and 108 % of control (2×) | [5] 100 % of control and 109 % of control

CCC1NN1C(C)C (stereo not drawn)
inactive: dose: 50.0 mg/kg/injection, schedule: Q04DX002 (ip), vehicle: saline with Tween-80 100 % of control | dose: 100.0 mg/kg/injection, schedule: Q04DX002 (ip), vehicle: saline with Tween-80 95 % of control | dose: 200.0 mg/kg/injection, schedule: Q04DX002 (ip), vehicle: saline with Tween-80 107 % of control

COC12C=CC(CC1)C1C(=O)C=CC(=O)C12 (stereo not drawn)
inactive: [3] 105 % of control | [4] 105 % of control | [5] 112 % of control

CC1(C)COC(=O)/C1=C/C#N
inactive: [8] 106 % of control | [9] 98 % of control | [10] 90 % of control

CC(C)=NNS(=O)(=O)c1ccc(C)cc1
inactive: dose: 12.5 mg/kg/injection, schedule: Q01DX009 (ip), vehicle: Klucel (hydroxypropylcellulose) (HPC) 101 % of control | dose: 25.0 mg/kg/injection, schedule: Q01DX009 (ip), vehicle: Klucel (hydroxypropylcellulose) (HPC) 93 % of control | dose: 50.0 mg/kg/injection, schedule: Q01DX009 (ip), vehicle: Klucel (hydroxypropylcellulose) (HPC) 95 % of control | dose: 100.0 mg/kg/injection, schedule: Q01DX009 (ip), vehicle: Klucel (hydroxypropylcellulose) (HPC) 97 % of control | dose: 200.0 mg/kg/injection, schedule: Q01DX009 (ip), vehicle: Klucel (hydroxypropylcellulose) (HPC) 88 % of control

O=S1(=O)CC(SC2CS(=O)(=O)C2)C1
inactive: dose: 100.0 mg/kg/injection, schedule: Q01DX001 (ip), vehicle: saline with Tween-80 103 % of control | dose: 200.0 mg/kg/injection, schedule: Q01DX001 (ip), vehicle: saline with Tween-80 101 % of control | dose: 400.0 mg/kg/injection, schedule: Q01DX001 (ip), vehicle: saline with Tween-80 100 % of control
